This is an account of results in ChEMBL document CHEMBL3507680, “University of Dundee, Gates Library screen for HepG2 cell viability”.

This series in a line: Human HepG2 cell viability assay in 384 well format. In kind it is toxicity, cell-based. More on the design: dose 125 nL, time 70.5 hour; cytotoxicity at 70.5 h: concentration not given beside the values. The note with it: HepG2 cells, read-out: Inhibition.

SMILES strings stand for the structures.

Turning to `N#Cc1c(-c2ccccc2)csc1N`, the cytotoxicity at 70.5 h was -22.3%. Take `O=C(c1nc2c(s1)CCCN2CC1CC1)N1CCOCC1`: the cytotoxicity at 70.5 h was found to be 4.5%. Consider `COCCn1cc(-c2cc(C(=O)N3CCCC3)c3ccccn23)nc1C`, for which the cytotoxicity at 70.5 h was -0.704%. In the case of `CS(=O)(=O)N1CCOC2(CCCN(c3ncc(F)cn3)C2)C1` (centres undefined), the cytotoxicity at 70.5 h was -2.76%. On to `O=C(N1CCCC1)N1CCC2(CC(=O)N(c3ccc4c(c3)OCO4)C2)C1` (centres undefined), for which the cytotoxicity at 70.5 h is -2.04%. The value for `OCCN1CCOC2(CCCN(c3ncccn3)C2)C1` (centres undefined) was -2.47%. For `O=C(c1ccno1)N1CCC2(CC(=O)N(c3ccc4c(c3)OCO4)C2)C1` (centres undefined), the cytotoxicity at 70.5 h is -0.613%. Consider `Cc1nc(NC(C)C)nc2c1CN(Cc1nccn1C)CC2`, for which the cytotoxicity at 70.5 h turned out to be 0.21%. Consider `O=C(c1nc2c(s1)CCCN2CC1CC1)N1CCCC1`, for which the cytotoxicity at 70.5 h is -0.67%. For the compound `Cc1cccc(CO[C@H]2CO[C@@]3(CCN(S(=O)(=O)N(C)C)C3)C2)n1`, the cytotoxicity at 70.5 h turned out to be 15.2%.

Take `CC(C)N(C)Cc1noc2c1CN(C(=O)c1cnccn1)CC2`: the cytotoxicity at 70.5 h was -1.15%. On to `COCCC(=O)N1CC[C@H]2C(=O)N(c3ccsc3)CCO[C@H]2C1`, for which the cytotoxicity at 70.5 h was -1.99%. With `CCNC(=O)CC1CC2(CCN(C(C)=O)CC2)c2cc(F)ccc21` (centres undefined), the cytotoxicity at 70.5 h was -5.07%. Take `COCC(=O)N1C[C@@H]2COC[C@]2(COC)C1`: the cytotoxicity at 70.5 h was -9.06%. As for `COC[C@]12COC[C@H]1CN(C(=O)C1CC(F)(F)C1)C2`, the cytotoxicity at 70.5 h was -8.18%. The value for `CCOCc1cnc2n1CCN(C(=O)Cc1cccs1)C2C` (centres undefined) was -7.5%. In the case of `COC1COC2(CCN(C(=O)c3cnc(C)cn3)CC2)C1` (centres undefined), the cytotoxicity at 70.5 h was -6.81%.

As for `CCOc1cc(=O)n2c(c1C(=O)OCc1ccc(F)cc1)CCCC2`, the cytotoxicity at 70.5 h was -8.82%. With `O=C(NC1CCCC1)N1CCCCC1c1nc(C2CC2)no1` (centres undefined), the cytotoxicity at 70.5 h was -15.1%. Turning to `O=C(NCc1ccco1)N1CCCCC1c1nc(C2CC2)no1` (centres undefined), the cytotoxicity at 70.5 h was -7.19%.

For the compound `Nc1nc(N2CCCCC2)ncc1C(=O)NCc1ccc(F)c(Cl)c1`, the cytotoxicity at 70.5 h is -20%.

In the case of `CC1CCCN(c2ncc(C(=O)NCc3ccc(F)c(Cl)c3)c(N)n2)C1` (centres undefined), the cytotoxicity at 70.5 h was determined as 19.8%.

With `CC(C)NC(=O)C1CCN(c2nc3nc[nH]c(=O)c3s2)CC1`, the cytotoxicity at 70.5 h was -21.7%. On to `O=C(C1CCN(c2nc3nc[nH]c(=O)c3s2)CC1)N1CCCCC1`, for which the cytotoxicity at 70.5 h was -15.6%. With `O=C(NC1CC1)C1CCN(c2nc3nc[nH]c(=O)c3s2)CC1`, the cytotoxicity at 70.5 h is -20.8%. For the compound `CCNC(=O)c1cc(OC)c2cc(F)cc(C)c2n1`, the cytotoxicity at 70.5 h was -12.9%. The value for `COc1ccc(-c2c(C)nn3c(=N)c(C#N)n[nH]c23)cc1` was -12.3%. For the compound `Cc1cc(=O)[nH]c(=O)n1COCCOCc1ccccc1`, the cytotoxicity at 70.5 h was 25.1%. Turning to `Cn1cnnc1SCc1cc2c(cc1Cl)OCO2`, the cytotoxicity at 70.5 h was -20.6%. Under `CN(C)CCCNC(=O)c1ccccc1NC(=O)c1cc(Cl)ccc1Cl` stands -13.9%; under `COc1ccc(OC)c(NC(=O)CSc2ccc3nncn3n2)c1`, -8.56%.

With `Cc1n[nH]/c(=N\C(=O)c2c3c(nc4onc(C)c24)CCC3)s1`, the cytotoxicity at 70.5 h is -13.7%.

`O=C(CCn1ccc2cc(Br)ccc21)/N=c1\[nH]nc(C2CCCO2)s1` (centres undefined): the cytotoxicity at 70.5 h is -12%. For `COc1ccc(-c2cc(=O)n3c(n2)CCCCC3)cc1`, the cytotoxicity at 70.5 h is -10.4%. For the compound `CN(C)c1ccc(-c2cc(=O)n3c(n2)CCCCC3)cc1`, the cytotoxicity at 70.5 h was -11%. Regarding `CCOc1ccc(-c2cc(=O)n3c(n2)CCCCC3)cc1`, the cytotoxicity at 70.5 h is -5.56%. `COc1ccc(NC(=O)CSc2nncn2-n2cccc2)c(OC)c1`: the cytotoxicity at 70.5 h is -14.5%.

Take `CCOc1cccc(CNc2ccccc2C(F)(F)F)c1O`: the cytotoxicity at 70.5 h was determined as 13.7%. `CCOc1cccc(CNc2ccccc2Cl)c1O`: the cytotoxicity at 70.5 h is -4.02%. Consider `Cc1c(C)n(Cc2ccncc2)c2nc3c(c(N)c12)CCCC3`, for which the cytotoxicity at 70.5 h is -7.64%. On to `O=C(O)C1CCN(C(=O)CCn2ccc3cc(Br)ccc32)CC1`, for which the cytotoxicity at 70.5 h is -15.9%.

For `NC(=O)C1CCN(C(=O)Cn2ccc3cc(Br)ccc32)CC1`, the cytotoxicity at 70.5 h is -9.96%. On to `CN(C(=O)Cn1nc(-c2ccccc2)ccc1=O)C1CCS(=O)(=O)C1` (centres undefined), for which the cytotoxicity at 70.5 h was -12.1%.

With `O=C(NCCCN1CCOCC1)c1nc(-c2ccc3cc[nH]c3c2)no1`, the cytotoxicity at 70.5 h is -16.3%. Turning to `O=C(NCCCN1CCCC1=O)c1nc(-c2ccc3cc[nH]c3c2)no1`, the cytotoxicity at 70.5 h was -22.5%. With `Cc1c(C)n(Cc2ccncc2)c2nc3c(c(N)c12)CCCCCC3`, the cytotoxicity at 70.5 h is 30.2%. With `O=c1ccc(-c2cccs2)nn1CN1CCN(C2CCS(=O)(=O)C2)CC1` (centres undefined), the cytotoxicity at 70.5 h is -10.9%. The value for `O=c1ccc(-c2cccs2)nn1CN1CCOCC1` was -16.7%; that for `CC(C)c1nnc2ccc(N3CCCC(C(=O)Nc4nccs4)C3)nn12` (centres undefined) was -25.2%. Regarding `COc1cccc(N2Cc3nc(=O)n(C(C)C)n3C2=O)c1`, the cytotoxicity at 70.5 h was -13.3%. As for `CC(C)c1nnc2ccc(N3CCC(C(=O)NC4CC4)CC3)nn12`, the cytotoxicity at 70.5 h is -25%. Under `Cc1oc(-c2nc(C#N)c(N(C)C)o2)cc1S(=O)(=O)N1CCCCCC1` stands 12.8%; under `Cc1ccc(-c2csc(N)c2C#N)c(C)c1`, -15.8%; under `O=c1[nH]c2c(c(=O)n1C1CCCCC1)CCC2NCc1ccccc1` (centres undefined), -30.1%. The value for `O=c1[nH]c2c(c(=O)n1C1CCCCC1)CCC2Nc1ccccn1` (centres undefined) was 20.1%; that for `O=c1[nH]c2c(c(=O)n1C1CCCCC1)CCC2Nc1ccc(Cl)cc1` (centres undefined) was -12.5%. With `COc1ccc(NC2CCc3c2[nH]c(=O)n(C2CCCCC2)c3=O)cc1` (centres undefined), the cytotoxicity at 70.5 h is -28.5%.

Consider `O=C1C(CS(=O)(=O)Nc2ccc(Br)cc2)=NC(=O)n2cccc21`, for which the cytotoxicity at 70.5 h is 2.35%. With `Cc1nn(C)c(=O)c2nn(-c3ccc(F)cc3)c(C)c12`, the cytotoxicity at 70.5 h was -8.42%. Regarding `Cc1cc(SCC(N)=O)nc(-c2cccc(F)c2)n1`, the cytotoxicity at 70.5 h was -11.7%. With `O=C(c1cnc2ccc(F)cc2c1NCc1ccco1)N1CCCCC1`, the cytotoxicity at 70.5 h was -9.21%. Turning to `Cc1ccc(Cn2c(=O)[nH]c3csnc3c2=O)cc1`, the cytotoxicity at 70.5 h was -13.9%. Under `O=C(c1cnc2ccc(F)cc2c1NCc1ccccn1)N1CCCC1` stands -17.9%; under `CCCN(CCC)c1ncc(S(=O)(=O)c2cccc(C)c2)c(N)n1`, -20.1%; under `Cc1c(C(=O)O)cnn1-c1ccc(-c2nc(C(C)C)no2)cn1`, -15.1%.

Take `CCCc1noc(-c2ccc(-n3ncc(C(=O)O)c3C)nc2)n1`: the cytotoxicity at 70.5 h was 23.5%. On to `Cc1noc(-c2ccc(-n3ncc(C(=O)O)c3C)nc2)n1`, for which the cytotoxicity at 70.5 h was -5.29%. Under `Cc1cccc(-c2cc(C(=O)O)sn2)c1` stands -14.1%; under `Cc1c(C(=O)N2CCN(C)CC2)n(C)c2ccc(Cl)cc12`, -11.7%; under `CCc1c(C)n(C)c2nc3ccccc3n2c1=O`, 8.75%. The value for `CCc1c(C)n(CC(=O)OC)c2nc3ccccc3n2c1=O` was -14.1%. The value for `CC1(C)CC(=O)c2cnc3nc(N4CCCC4)[nH]c(=O)c3c2C1` was -10.4%; that for `CC1CCN(c2nc3ncc4c(c3c(=O)[nH]2)CC(C)(C)CC4=O)CC1` was -4.25%; that for `O=C(NCCSCc1ccco1)c1ccc(N2CCOCC2)cc1` was -12.3%. Turning to `Cc1ccc(C)c(CSc2nnc(C(N)C(C)C)o2)c1` (centres undefined), the cytotoxicity at 70.5 h was -9.25%. Regarding `COc1ccc(CNCC(C)Oc2ccccn2)cc1` (centres undefined), the cytotoxicity at 70.5 h was -18.6%. Under `CC(CNCc1ccc(F)cc1)Oc1ccccn1` (centres undefined) stands -17.7%; under `Cc1c(C(=O)N2CCOCC2)n(C)c2ccc(Cl)cc12`, -10.5%. Take `CC(=O)N1CCO[C@@H]2CN(C(=O)NCc3cccnc3)CC[C@@H]2C1`: the cytotoxicity at 70.5 h is -2.08%. `CN(C)C[C@H]1OC[C@@H]2CN(C(=O)NCc3cccc(F)c3)CC[C@@H]21`: the cytotoxicity at 70.5 h is -5.06%.

Regarding `COCC(=O)NCC1Cn2nnc(-c3ccncc3)c2CO1` (centres undefined), the cytotoxicity at 70.5 h is -3.5%. Regarding `CC(C)Nc1nc2c(c(NC3CC3)n1)CCN(Cc1nccn1C)CC2`, the cytotoxicity at 70.5 h was -1.1%. The value for `O=C1[C@H]2CN(C3CCOC3)C[C@H]2CN1c1ccccc1` (some centres undefined) was -1.16%; that for `O=C(NCC1COCc2c(-c3ccncc3)nnn2C1)[C@H]1CCCO1` (some centres undefined) was -0.723%; that for `CN(C)S(=O)(=O)N1CC[C@]2(C[C@H](OCc3ccccn3)CO2)C1` was -0.384%. The value for `O=C(CO)N1CCOC2(CCCN(c3ncc(F)cn3)C2)C1` (centres undefined) was -0.965%. As for `CN(C)S(=O)(=O)N1CC[C@]2(C[C@@H](OCc3ccccn3)CO2)C1`, the cytotoxicity at 70.5 h is -1.04%. Take `CCS(=O)(=O)N1CCC2(CCN(Cc3nccs3)CC2)CC1`: the cytotoxicity at 70.5 h was found to be 15.2%. For the compound `O=C(c1ccsc1)N1CCc2onc(COc3ccccn3)c2C1`, the cytotoxicity at 70.5 h was -1.49%. The value for `CCOCC(=O)N1CCC2(CC1)COCCN2CCOC` was -1.68%.

In the case of `O=C(Cc1cccs1)N1CCC2(CC1)COCCN2CC1CC1`, the cytotoxicity at 70.5 h is -8.87%. Consider `COCC(=O)N1CCC2(CCN(Cc3ccc(C)cc3)CC2)CC1`, for which the cytotoxicity at 70.5 h was -11.5%. Turning to `O=S(=O)(C1CC1)N1CC[C@@H]2[C@@H]1CCN2Cc1cccs1`, the cytotoxicity at 70.5 h is -6.17%.

For `c1cc(CNCC2Cn3nncc3CO2)co1` (centres undefined), the cytotoxicity at 70.5 h is -6.75%. Under `CCOCc1cnc2n1CCN(Cc1cccs1)C2C` (centres undefined) stands -8.03%; under `COc1cc(N2CCc3ncnc(-c4ccncc4)c3CC2)ncn1`, -6.14%; under `O=c1ccc2c(n1Cc1cccnc1)CCN(CC1CCOC1)CC2` (centres undefined), -4.17%. As for `c1cncc(-c2ccc3c(c2)CCC32CCN(Cc3ccco3)CC2)c1`, the cytotoxicity at 70.5 h was -0.391%. The value for `C[C@@H]1CN(C2CCOC2)C[C@]12CCN(c1cccnc1)C2=O` (some centres undefined) was -9.89%.
